According to patent publication US6653529B2, “Use of the maize X112 mutant ahas 2 gene and imidazolinone herbicides for selection of transgenic monocots, maize, rice and wheat plants resistant to the imidazolinone herbicides” (BASF Aktiengesellschaft, priority 2000, dated 2003):

Assays:
Format in all cases: in vivo
transgenic rice Line 26 = assay: Response of rice plants to various herbicides, seed set in greenhouse; details: post-emergence, 1× g ai/ha: PURSUIT 62.5, CADRE 32, ARSENAL 24, RAPTOR 32, SCEPTER 125, ACCENT 35, CLASSIC 5, AC322,140 20, LONDAX 68
Excerpt: (§1) A total of 9 herbicides, 5 imidazolinones, two rice herbicides and ACCENT® (nicosulfuron) and CLASSIC® (clorimuron-ethyl) were applied in this study. Materials and methods were basically the same as described above, except that instead of 6″ pots, flats with 18 (3″×3″ per cell) cells were used, and 10-12 seeds were planted to one 3″×3″ cell. Ten plants were maintained in one cell in the post-emergence application. Each herbicide was sprayed at 4 different rates, 1, 2, 4, and 6×, as either pre or post-emergence applications with three replications per treatment. The name and amount of herbicide applied in this experiment and information relevant to their commercial applications are listed in Table 3. For simplicity and convenience, the lowest concentration used is referred as 1× rate, 2, 4 and 6× rates can be calculated as multiples of 1×.
(§2) To monitor plant response to various herbicides, data on fresh weight was collected. For pre-emergence applications, all plants from one cell were harvested 32 days after spraying (36-day old plants) and weighed. Twenty-nine days after herbicide application, 5 plants (44-day old plants) from each cell in the post-emergence application, were cut and weighed individually. Mean fresh weight for each treatment was calculated over three replications. The remaining 5 plants were grown in the greenhouse to maturity at which time, panicles of 3 plants were collected, and number of filled seeds and number of total kernels were counted to determine percentage of seed set.

[1] = test system: untransformed Nt rice plants; assay: as above; details: post-emergence, 1× g ai/ha: PURSUIT 62.5, CADRE 32, ARSENAL 24, RAPTOR 32, SCEPTER 125, ACCENT 35, CLASSIC 5, AC322,140 20, LONDAX 68
Excerpt: as §1, §2

transgenic rice Line 29 = assay: as above; details: post-emergence, 1× g ai/ha: PURSUIT 62.5, CADRE 32, ARSENAL 24, RAPTOR 32, SCEPTER 125, ACCENT 35, CLASSIC 5, AC322,140 20, LONDAX 68
Excerpt: as §1, §2

[2] = test system: rice plants (transgenic Lines 26 and 29; Nt control); assay: Greenhouse herbicide tests on rice
Excerpt: We evaluated the response of transgenic rice to PURSUIT® imazethapyr application in the greenhouse. In this experiment, we included 2 transgenic lines and their untransformed counterpart (Nt). The transgenic lines, designated as Line 26 and 29, were T3 progeny derived from previously identified homozygous resistant transgenic plants containing the maize XI12 ahas2 gene driven by its own promoter. All seeds were pre-germinated in water for 2-3 days then grown in a planting mixture consisting of 1:1 soil and MetroMix 360 (The Scotts Company, Marysville, Ohio 43040) in 6-inch pots (2 seeds per pot) in the greenhouse and sprayed with PURSUIT® imazethapyr at 63, 125, or 250 g ai/ha. For post-emergence application, the plants were sprayed 15 days after seeding, at which time most plants had 3 leaves. For pre-emergence treatment, PURSUIT® imazethapyr was sprayed one day after seeding. Each treatment contained 20 plants and, and 3 replicates per treatment. One set of materials was not sprayed and used as control. The plants were grown in the greenhouse and harvested at maturity. The amount of PURSUIT® imazethapyr applied in this study (63, 125, or 250 g ai/ha) was close to 1, 2 or 4× field application rate for imi-resistant corn (refer to Table 3) since PURSUIT® imazethapyr is not currently labeled for use in rice fields. A custom designed belt sprayer was operated as described (Newhouse et al. 1992) for all herbicide applications. Five plants from each treatment were randomly chosen and individually measured for morphological traits. Means and standard deviations were calculated over three replications. Plant heights were measured from the base of the plant to the tip of the flag leaf 93 days after herbicide applications (DAH) and number of tillers per plant were counted 102-103 DAH. Data on number of panicles per plant and yield were collected after plants were harvested.
as §1, §2

| SMILES | % seed-set (transgenic rice Line 26; 1× rate) [%] | No. filled seeds/3 panicles (transgenic rice Line 26; 1× rate) | Total No. of kernels/3 panicles (transgenic rice Line 26; 1× rate) | % seed-set (transgenic rice Line 26; 2× rate) [%] | No. filled seeds/3 panicles (transgenic rice Line 26; 2× rate) | Total No. of kernels/3 panicles (transgenic rice Line 26; 2× rate) | % seed-set (transgenic rice Line 26; 4× rate) [%] | No. filled seeds/3 panicles (transgenic rice Line 26; 4× rate) | Total No. of kernels/3 panicles (transgenic rice Line 26; 4× rate) | % seed-set (transgenic rice Line 26; 6× rate) [%] | No. filled seeds/3 panicles (transgenic rice Line 26; 6× rate) | Total No. of kernels/3 panicles (transgenic rice Line 26; 6× rate) | % seed-set ([1]; 1× rate) [%] | No. filled seeds/3 panicles ([1]; 1× rate) | Total No. of kernels/3 panicles ([1]; 1× rate) | % seed-set ([1]; 2× rate) [%] | No. filled seeds/3 panicles ([1]; 2× rate) | Total No. of kernels/3 panicles ([1]; 2× rate) | % seed-set ([1]; 4× rate) [%] | No. filled seeds/3 panicles ([1]; 4× rate) | further results |
| --- | --- | --- | --- | --- | --- | --- | --- | --- | --- | --- | --- | --- | --- | --- | --- | --- | --- | --- | --- | --- | --- |
| COc1cc(OC)nc(NC(=O)NS(=O)(=O)Nc2ccccc2C(=O)C2CC2)n1 [AC 322,140, cyclosulfamuron] | 90 | 144 | 160 | 94 | 158 | 168 | 91 | 166 | 182 | 85 | 134 | 158 | 93 | 175 | 187 | 93 | 158 | 171 | 95 | 83 | Total No. of kernels/3 panicles ([1]; 4× rate): 86; % seed-set ([1]; 6× rate): 98%; No. filled seeds/3 panicles ([1]; 6× rate): 118; Total No. of kernels/3 panicles ([1]; 6× rate): 121; % seed-set (transgenic rice Line 29; 1× rate): 91%; No. filled seeds/3 panicles (transgenic rice Line 29; 1× rate): 150; Total No. of kernels/3 panicles (transgenic rice Line 29; 1× rate): 166; % seed-set (transgenic rice Line 29; 2× rate): 92%; No. filled seeds/3 panicles (transgenic rice Line 29; 2× rate): 172; Total No. of kernels/3 panicles (transgenic rice Line 29; 2× rate): 187; % seed-set (transgenic rice Line 29; 4× rate): 80%; No. filled seeds/3 panicles (transgenic rice Line 29; 4× rate): 129; Total No. of kernels/3 panicles (transgenic rice Line 29; 4× rate): 160; % seed-set (transgenic rice Line 29; 6× rate): 87%; No. filled seeds/3 panicles (transgenic rice Line 29; 6× rate): 134; Total No. of kernels/3 panicles (transgenic rice Line 29; 6× rate): 154; effect on growth of all plants treated ([2]; transgenic and control plants): minimal effect |
| COc1cc(OC)nc(NC(=O)NS(=O)(=O)c2ncccc2C(=O)N(C)C)n1 [ACCENT ®, nicosulfuron] | 34 | 82 | 145 | 0 | 0 | 0 | 0 | 0 | 0 | 0 | 0 | 0 | 3 | 6 | 24 | 0 | 0 | 0 | 0 | 0 | Total No. of kernels/3 panicles ([1]; 4× rate): 0; % seed-set ([1]; 6× rate): 0%; No. filled seeds/3 panicles ([1]; 6× rate): 0; Total No. of kernels/3 panicles ([1]; 6× rate): 0; % seed-set (transgenic rice Line 29; 1× rate): 82%; No. filled seeds/3 panicles (transgenic rice Line 29; 1× rate): 94; Total No. of kernels/3 panicles (transgenic rice Line 29; 1× rate): 114; % seed-set (transgenic rice Line 29; 2× rate): 10%; No. filled seeds/3 panicles (transgenic rice Line 29; 2× rate): 24; Total No. of kernels/3 panicles (transgenic rice Line 29; 2× rate): 48; % seed-set (transgenic rice Line 29; 4× rate): 0%; No. filled seeds/3 panicles (transgenic rice Line 29; 4× rate): 0; Total No. of kernels/3 panicles (transgenic rice Line 29; 4× rate): 0; % seed-set (transgenic rice Line 29; 6× rate): 0%; No. filled seeds/3 panicles (transgenic rice Line 29; 6× rate): 0; Total No. of kernels/3 panicles (transgenic rice Line 29; 6× rate): 0; effect on plant growth at 1× rates ([2]; post-emergence): greatly affected plant growth |
